Assays:
MCF-7 cells = assay: Cell Growth Inhibition, MCF-7 (CellTiterGlo, 6 days); type: cell-based; conditions: MCF-7, 6-day treatment, CellTiterGlo 2.0
Description: (§1) MCF-7 and OVCAR-3 cells were used to evaluate the anti-proliferation activity of the CDK inhibitors. MCF-7 (ATCC, HTB-22) cells are epithelial cells from a patient with ER+ metastatic adenocarcinoma. OVCAR-3 (ATCC, HTB-161) cells were derived from malignant ascites of a patient with ovarian cancer and are known to have CCNE1 amplification. Both cell lines were maintained in RPMI media supplemented with 10% fetal bovine serum. For cell growth inhibition assay, CDK inhibitors in DMSO solution were dispensed with either Echo 655 (Beckman Coulter) or Tecan D300e (HP) into 384-well plates (Corning #3765) and the 384-well plates were UV-sterilized prior to the assay. The inhibitors were typically tested in the 10-10,000 nM concentration range with half-log serial dilutions. MCF-7 or OVCAR-3 (500 cells/30 μL/well) were added to each well using Multidrop Combi (ThermoFisher) using standard cassettes. The assay plates with cells were cultured at 37° C., 5% CO2 for 6 days. At the end of the 6-day treatment, 30 μL of CellTiterGlo 2.0 (Promega) was added to each well and the luminescent signal was read using CLARIOstar plus (BMG). The percentage of cell growth inhibition (% CGI) was calculated using the following formula % CGI=100−100×luminescencesample/luminescencecontrol. The half maximal inhibitory concentration (IC50) was determined by nonlinear curve fitting (four parameters, variable slope).

CDK1/Cyclin B1 = CDK1/Cyclin B1 (Homo sapiens (Human), UniProt P06493); assay: CDK1/Cyclin B1 ADP-Glo Kinase Assay; type: biochemical; conditions: 80 uM ATP
Sequence of CDK1/Cyclin B1 (P06493 whole entry): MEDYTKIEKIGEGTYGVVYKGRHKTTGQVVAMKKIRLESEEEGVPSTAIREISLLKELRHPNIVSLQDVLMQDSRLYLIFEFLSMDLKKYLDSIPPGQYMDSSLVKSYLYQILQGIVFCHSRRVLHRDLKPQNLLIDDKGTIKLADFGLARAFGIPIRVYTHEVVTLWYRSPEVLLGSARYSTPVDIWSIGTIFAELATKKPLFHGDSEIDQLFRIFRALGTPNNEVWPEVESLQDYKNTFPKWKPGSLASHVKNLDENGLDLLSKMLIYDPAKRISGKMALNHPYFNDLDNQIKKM
Sequence of CDK1/Cyclin B1 (P14635 whole entry partner): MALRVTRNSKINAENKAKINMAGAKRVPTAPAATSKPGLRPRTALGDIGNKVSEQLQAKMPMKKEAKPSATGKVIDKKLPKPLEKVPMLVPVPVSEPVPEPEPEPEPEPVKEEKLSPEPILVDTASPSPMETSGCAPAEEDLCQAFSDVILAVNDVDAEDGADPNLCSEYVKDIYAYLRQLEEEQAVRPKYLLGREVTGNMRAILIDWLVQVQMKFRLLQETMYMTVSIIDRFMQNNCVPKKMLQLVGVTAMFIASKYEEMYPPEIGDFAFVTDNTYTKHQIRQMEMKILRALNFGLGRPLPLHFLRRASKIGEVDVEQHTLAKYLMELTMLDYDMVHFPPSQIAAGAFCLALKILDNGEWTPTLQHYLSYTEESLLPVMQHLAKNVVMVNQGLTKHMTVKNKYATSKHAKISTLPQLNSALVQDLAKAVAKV
Experimental: CDK1/Cyclin B1 ADP-Glo Kinase Assay
(§2) The purpose of CDK1/Cyclin B1 assay is to evaluate the inhibition (% inhibition and IC50 values) of small molecule inhibitors by using a Luminescent based ADP-Glo assay. CDK1/Cyclin B1 catalyzes the production of ADP from ATP. ADP-Glo assay monitors ADP producing biochemical reactions. ADP-Glo is performed in 2 steps upon completion of kinase reaction: a combined termination of kinase reaction and depletion of remaining ATP in the first step, and conversion of generated ADP to ATP and the newly produced ATP to light output using luciferase/luciferin reaction in the second step. The luminescent signal generated is proportional to the ADP concentration produced and is correlated with the kinase activity. CDK1/Cyclin B1 was purchased from Carna (Cat 04-102). Typical reaction solutions (10 uL final reaction volume) contained 2% DMSO (f inhibitor), 10 mM MgCl2, 1 mM EGTA, 0.05% BSA, 2 mM DTT, 80 uM ATP (ATP Km=78.6 uM), 0.01% Brig-35, 0.75 uM substrate, and 4.917 nM CDK1/Cyclin Bl enzyme complex in 50 mM HEPES buffer at pH 7.5. The assay was initiated with the addition of ATP-containing substrate solution, following a 30-minute pre-incubation of enzyme and inhibitor at room temperature in the reaction mixture. The reaction was stopped after 90 minutes at room temperature by the addition of 10 uL of ADP-GLO Reagent. After a 90 minute incubation, 20 uL of Kinase Detection Reagent was added. Samples were incubated for 40 minutes, after which plate well luminescence was measured on a Envision microplate reader. The IC50 determinations were made from a plot of the fractional velocity as a function of inhibitor concentration fit to the 4 parameters IC50 equation.

CDK6/Cyclin D3 = CDK6/Cyclin D3 (Homo sapiens (Human), UniProt Q00534); assay: CDK6/Cyclin D3 ADP-Glo Kinase Assay; type: biochemical; conditions: 100 uM ATP, read-out: CDK6/ CyclinD3 IC50
Sequence of CDK6/Cyclin D3 (Q00534 whole entry): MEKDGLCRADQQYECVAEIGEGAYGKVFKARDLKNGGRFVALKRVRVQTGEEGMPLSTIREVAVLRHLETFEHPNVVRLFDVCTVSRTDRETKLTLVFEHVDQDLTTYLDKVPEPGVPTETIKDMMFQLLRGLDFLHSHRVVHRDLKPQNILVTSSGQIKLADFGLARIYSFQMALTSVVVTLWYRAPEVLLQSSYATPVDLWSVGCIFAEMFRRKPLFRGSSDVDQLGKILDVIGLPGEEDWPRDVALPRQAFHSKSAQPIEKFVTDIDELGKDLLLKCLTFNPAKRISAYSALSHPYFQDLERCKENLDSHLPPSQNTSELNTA
Sequence of CDK6/Cyclin D3 (P30281 whole entry partner): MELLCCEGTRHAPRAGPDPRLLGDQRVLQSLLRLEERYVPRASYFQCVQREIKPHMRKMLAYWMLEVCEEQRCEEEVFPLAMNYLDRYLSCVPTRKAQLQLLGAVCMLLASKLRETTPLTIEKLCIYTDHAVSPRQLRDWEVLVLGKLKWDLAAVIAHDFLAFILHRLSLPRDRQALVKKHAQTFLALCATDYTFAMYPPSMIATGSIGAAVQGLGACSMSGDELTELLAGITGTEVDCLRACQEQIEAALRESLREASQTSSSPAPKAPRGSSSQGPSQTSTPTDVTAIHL
Experimental: CDK6/Cyclin D3 ADP-Glo Kinase Assay
as §2, with “of the CDK6/Cyclin D3” for “of CDK1/Cyclin B1”, “values) in the presence” for “values)”, “assay. CDK6/Cyclin D3” for “assay. CDK1/Cyclin B1”, “activity. CDK6/Cyclin D3” for “activity. CDK1/Cyclin B1”, “from Carna. […]” for “from Carna (Cat 04-102). Typical reaction solutions (10 uL final reaction volume) contained 2% DMSO (f inhibitor), 10 mM MgCl2, 1 mM EGTA, 0.05% BSA, 2 mM DTT, 80 uM ATP (ATP Km=78.6 uM), 0.01% Brig-35, 0.75 uM substrate, and 4.917 nM CDK1/Cyclin Bl enzyme complex in 50 mM HEPES buffer at pH 7.5.”, “a 90-minute” for “a 90 minute”

CDK4/Cyclin D1 = CDK4/Cyclin D1 (Homo sapiens (Human), UniProt P11802); assay: CDK4/Cyclin D1 CHEF Assay (AQT0258 peptide); type: biochemical; conditions: 200 uM ATP, read-out: CDK4/ CyclinD1 AQT IC50
Sequence of CDK4/Cyclin D1 (P11802 whole entry): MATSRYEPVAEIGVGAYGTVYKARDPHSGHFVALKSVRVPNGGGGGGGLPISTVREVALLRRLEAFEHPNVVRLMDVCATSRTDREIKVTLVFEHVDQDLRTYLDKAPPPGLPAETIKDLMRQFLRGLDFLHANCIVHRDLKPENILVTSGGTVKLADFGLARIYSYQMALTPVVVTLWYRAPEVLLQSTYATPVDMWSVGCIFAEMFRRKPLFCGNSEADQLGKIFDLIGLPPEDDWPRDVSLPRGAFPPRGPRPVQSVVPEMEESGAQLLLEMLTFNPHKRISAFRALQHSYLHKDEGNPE
Sequence of CDK4/Cyclin D1 (P24385 whole entry partner): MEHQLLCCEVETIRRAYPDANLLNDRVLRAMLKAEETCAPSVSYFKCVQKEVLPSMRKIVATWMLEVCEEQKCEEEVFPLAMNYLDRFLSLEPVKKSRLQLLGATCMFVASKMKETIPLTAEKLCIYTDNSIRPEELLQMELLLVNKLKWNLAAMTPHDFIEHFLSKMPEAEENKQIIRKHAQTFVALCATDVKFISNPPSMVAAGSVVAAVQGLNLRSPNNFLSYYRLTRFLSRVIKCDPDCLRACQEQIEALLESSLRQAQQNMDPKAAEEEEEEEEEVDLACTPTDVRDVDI
Description: CDK4/Cyclin D1 CHEF Assay
The purpose of CDK4/Cyclin Dl assay is to evaluate the inhibition (% inhibition and IC50 values) of small molecule inhibitors by using a Chelation-Enhance Fluorescence (CHEF) assay. In a CHEF assay, phosphorylation of a peptide substrate results in proportional increase in fluorescence. CHEF kinase assay use peptide substrates containing a synthetic alpha-amino acid with a side chain bearing an 8-hydroxyquinoline derivative (sulfonamido-oxide, Sox). Upon phosphorylation of a nearby serine, threonine or tyrosine and in the presence of Mg(II), the spectral properties of the Sox residue are altered, emitting 485 nm wavelength light when excited with a 360 nm wavelength light source. CDK4/Cyclin D1 catalyzes the phosphoryl transfer to the SOX-labeled substrate peptide AQT0258 from Assayquant Technologies. Typical reaction solutions contained 2% DMSO (+/−inhibitor), 10 mM MgCl2, 1 mM DTT, 200 uM ATP (ATP Km=195.2 uM), 0.012% Brig-35, 10 uM AQT0258 peptide, 0.02% BSA, 1% Glycerol, 0.55 mM EGTA, 2.5 nM CDK4/Cyclin D1 in 54 mM HEPES buffer at pH 7.5. The reaction was initiated with the addition of substrate solution, following a 30-minute pre-incubation of enzyme and inhibitor at 22° C. in the reaction mix. Reactions were allowed to proceed for 3 hrs at 22° C., followed by fluorescence read of the reaction. The IC50 determinations were made from a plot of the fractional velocity as a function of inhibitor concentration fit to the 4 parameters IC50 equation.

OVCAR-3 cells = assay: Cell Growth Inhibition, OVCAR-3 (CellTiterGlo, 6 days); type: cell-based; conditions: OVCAR-3, 6-day treatment, CellTiterGlo 2.0
Description: as §1

[1] = target: CDK2/Cyclin E1 full length (Homo sapiens (Human), UniProt P24941); assay: CDK2/Cyclin E1 Full Length ADP-Glo Kinase Assay; type: biochemical; conditions: 20 uM ATP, read-out: CDK2/ CyclinE1 IC50
Experimental: CDK2/Cyclin E1 Full Length ADP-Glo Kinase Assay
The purpose of CDK2/Cyclin E1 assay is to evaluate the inhibition (% inhibition and IC50 values) of small molecule inhibitors by using a Luminescent based ADP-Glo assay. CDK2/Cyclin E1 full length catalyzes the production of ADP from ATP. ADP-Glo assay monitors ADP producing biochemical reactions. ADP-Glo is performed in 2 steps upon completion of kinase reaction: a combined termination of kinase reaction and depletion of remaining ATP in the first step, and conversion of generated ADP to ATP and the newly produced ATP to light output using luciferase/luciferin reaction in the second step. The luminescent signal generated is proportional to the ADP concentration produced and is correlated with the kinase activity. CDK2/Cyclin E1 was purchased from Eurofins (Cat 14-475M). Typical reaction solutions (10 uL final reaction volume) contained 2% DMSO (f inhibitor), 10 mM MgCI2, 1 mM EGTA, 0.05% BSA, 2 mM DTT, 20 uM ATP (ATP Km=64.78 uM), 0.01% Brig-35, 0.75 uM substrate, and 0.328 nM wild-type full length CDK2/Cyclin E1 enzyme complex in 50 mM HEPES buffer at pH 7.5. The assay was initiated with the addition of ATP-containing substrate solution, following a 30-minute pre-incubation of enzyme and inhibitor at room temperature in the reaction mixture. The reaction was stopped after 90 minutes at room temperature by the addition of 10 uL of ADP-GLO Reagent. After a 90 minute incubation, 20 uL of Kinase Detection Reagent was added. Samples were incubated for 40 minutes, after which plate well luminescence was measured on a Envision microplate reader. The IC50 determinations were made from a plot of the fractional velocity as a function of inhibitor concentration fit to the 4 parameters IC50 equation.

Row | Compound | IC50 (MCF-7 cells; Homo sapiens, MCF7, 144 h) [µM] | IC50 (CDK1/Cyclin B1) [µM] | IC50 (CDK6/Cyclin D3) [µM] | IC50 (CDK4/Cyclin D1) [µM] | IC50 (OVCAR-3 cells; Homo sapiens, 144 h) [µM] | IC50 [1] [µM] | IC50 (MCF-7 cells) [µM] | IC50 (OVCAR-3 cells) [µM]
1 | CN1CC(n2cc(Nc3ncc4cc(C(F)F)cc(N5CC6(CN(C)C6)C5)c4n3)cn2)C1 [Example 59, 6-(difluoromethyl)-8-(6-6-methyl-2,6-diazaspiro[3.3]heptan-2-yl)-N-(1-(1-methylazetidin-3-yl)-1H-pyrazol-4-yl)quinazolin-2-amine] |  | > 2 | 0.5 to 2 | 0.2 to 0.5 |  | 0.5 to 2 | > 2 | > 2
2 | CN1CC2(CCN(c3cc(C(F)F)cc4cnc(NC5CCN(c6ncc(C7CC7)cn6)CC5)nc34)C2)C1 [Example 64, N-(1-(5-cyclopropylpyrimidin-2-yl)piperidin-4-yl)-6-(difluoromethyl)-8-(2-methyl-2,6-diazaspiro[3.4]octan-6-yl)quinazolin-2-amine] | 0.5 to 2 | > 2 | > 2 | < 0.2 | > 2 | 0.5 to 2 |  | 
3 | CN1Cc2ccc(Nc3ncc4cc(C(F)F)cc(N5CC6(C5)CN(C5CC5)C6)c4n3)cc2C1 [Example 65, 8-(6-cyclopropyl-2,6-diazaspiro[3.3]heptan-2-yl)-6-(difluoromethyl)-N-(2-methylisoindolin-5-yl)quinazolin-2-amine] | 0.5 to 2 | > 2 | < 0.2 | < 0.2 | 0.5 to 2 | < 0.2 |  | 
4 | CN1Cc2ccc(Nc3ncc4cc(C(F)F)cc(N5CCC6(CN(C)C6)C5)c4n3)cc2C1 [Example 66, 6-(difluoromethyl)-8-(2-methyl-2,6-diazaspiro[3.4]octan-6-yl)-N-(2-methylisoindolin-5-yl)quinazolin-2-amine] | 0.5 to 2 | 0.5 to 2 | < 0.2 | < 0.2 | 0.5 to 2 | < 0.2 |  | 

The remaining lines, values ahead:

Row | IC50 (MCF-7 cells; Homo sapiens, MCF7, 144 h) [µM] | IC50 (CDK1/Cyclin B1) [µM] | IC50 (CDK6/Cyclin D3) [µM] | IC50 (CDK4/Cyclin D1) [µM] | IC50 (OVCAR-3 cells; Homo sapiens, 144 h) [µM] | IC50 [1] [µM] | IC50 (MCF-7 cells) [µM] | IC50 (OVCAR-3 cells) [µM] | Compound
5 | 0.5 to 2 | 0.5 to 2 | < 0.2 | < 0.2 | 0.5 to 2 | < 0.2 |  |  | CN1Cc2ccc(Nc3ncc4cc(C(F)F)cc(N5CC6(C5)CN(S(C)(=O)=O)C6)c4n3)cc2C1 [Example 58, 6-(difluoromethyl)-N-(2-methylisoindolin-5-yl)-8-(6-(methylsulfonyl)-2,6-diazaspiro[3.3]heptan-2-yl)quinazolin-2-amine]
6 | 0.5 to 2 | 0.5 to 2 | < 0.2 | < 0.2 | 0.5 to 2 | 0.2 to 0.5 |  |  | CN1CC2(CC(n3cc(Nc4ncc5cc(C(F)F)cc(N6CCC(C#N)(C7CC7)C6)c5n4)cn3)C2)C1 (stereo not drawn) [Example 60, 3-cyclopropyl-1-(6-(difluoromethyl)-2-((1-(2-methyl-2-azaspiro[3.3]heptan-6-yl)-1H-pyrazol-4-yl)amino)quinazolin-8-yl)pyrrolidine-3-carbonitrile]
7 | > 2 | 0.5 to 2 | 0.5 to 2 | 0.2 to 0.5 | > 2 | < 0.2 |  |  | CN1Cc2cc(F)c(Nc3ncc4cc(C(F)F)cc(N5CC6(CNC6)C5)c4n3)cc2C1 [Example 61, 6-(difluoromethyl)-N-(6-fluoro-2-methylisoindolin-5-yl)-8-(2,6-diazaspiro[3.3]heptan-2-yl)quinazolin-2-amine]
8 | < 0.2 | 0.2 to 0.5 | < 0.2 | < 0.2 | 0.5 to 2 | < 0.2 |  |  | CN1CC2(CCN(c3cc(C(F)F)cc4cnc(NC5CCN(S(C)(=O)=O)CC5)nc34)C2)C1 [Example 62, 6-(difluoromethyl)-8-(2-methyl-2,6-diazaspiro[3.4]octan-6-yl)-N-(1-(methylsulfonyl)piperidin-4-yl)quinazolin-2-amine]
9 | 0.5 to 2 | < 0.2 | < 0.2 | < 0.2 | 0.5 to 2 | < 0.2 |  |  | CS(=O)(=O)N1CCC(Nc2ncc3cc(C(F)F)cc(N4CC5(CCNC5)C4)c3n2)CC1 [Example 63, 6-(difluoromethyl)-N-(1-(methylsulfonyl)piperidin-4-yl)-8-(2,6-diazaspiro[3.4]octan-2-yl)quinazolin-2-amine]
